The text below walks through data of patent US20260248833A1, “PYRIMIDINE NUCLEOSIDE TREATMENTS” (The Children`s Medical Center Corporation, priority 2022, published 2026).

Structures are written as SMILES.

What all share (format): biochemical
For one test, the target named is T1, telomerase (Homo sapiens, UniProt O14746).
T1 construct: expressed in transfected cells; host or cells: TERC-null 293T cells transfected with TERT and TERC expression vectors
In words: Modified TRAP assay with exogenous dTTP on super-telomerase extracts. The following applies: increasing levels of exogenous dTTP. The method, then: (§1) TRAP assay: cell extracts for TRAP assays were made using TRAPeze™1×CHAPS Lysis Buffer (Roche) supplemented with RNASEin (Promega). Standard TRAP reactions (in FIG. 25a) were performed as described, with cell input normalized across samples using the Bio-Rad DC assay. TRAP assays were modified to enable unique dNTP concentrations in telomerase reactions from PCR reactions (FIG. 25) as follows: reactions were assembled with 1×TRAP buffer (20 mM Tris-HCl, pH 8.3; 1.5 mM MgCl2; 63 mM KCl; 0.05% Tween 20; 1 mM EGTA), TS, ACX, TNST, and NT primers as described (see Primers/Oligos below), dNTPs were added at physiologic concentrations (dATP 24 μM, dGTP 5.2 μM, dCTP 29 μM, dTTP 37 μM) unless otherwise mentioned in the figure legend, followed by telomerase extracts. TRAP assays were modified to detect GGAAAG repeats using the following primers: TS GGAAAG, TNST GGAAAG, ACX GGAAAG, and NT (see Primers/Oligos below). After addition of telomerase extracts, reactions were incubated for 30 minutes at 30° C. followed by heat inactivation at 95° C. for 5 minutes. […] Images were quantified for a given lane using ImageJ by measuring the signal of the telomerase repeat sized products divided by the signal of the internal control band for the lane, normalized to the same ratio for the untreated sample(s) in a given experiment. […]

Test [1] deals with T2, immunopurified T-free telomerase (Homo sapiens, UniProt O14746).
T2 construct: made in house; host or cells: TERC-null 293T cells, transient transfection; anti-HA magnetic bead immunopurification, enzyme used on beads
As to the kind of experiment: Direct telomerase assay on immunopurified T-free telomerase. As for the experimental part: Telomerase immunopurification: 293T TERC-null cells were transfected as described above with 3×HA-TERT and TERC/EGFP in 10-cm diameter dishes with reagents scaled up proportional to cell growth area. Two days after transfection, cells were harvested, washed once in PBS, and lysed in TRAPezeTM1×CHAPS Lysis Buffer (Roche) supplemented with RNasin Plus (Promega) and HALT protease inhibitor cocktail (Thermo Fisher), followed by incubation on ice for 30 minutes and precipitation of insoluble material by centrifugation. Immunoprecipitation was performed as described previously with minor modifications. Briefly, 75 μl of anti-HA magnetic beads (Sigma-Aldrich, SAE0197, mouse IgG1 monoclonal antibody, Clone HA-7, 50% beads by volume) were added to clarified lysates followed by 2 hours incubation at 4° C. while rotating. […] Images were quantified using ImageJ as follows. For total telomerase activity measurement (FIG. 25f), telomerase product signal in a lane was quantified and normalized to the loading control band signal within the same lane. […] For the analysis of telomerase repeat intensity (FIG. 25x), the signal of each repeat (defined as the three consecutive intense bands in the laddering pattern, as indicated in FIG. 25d), was quantified and first normalized to the loading control band signal for that lane. […]

The target of a further test is T3, T-free telomerase (Homo sapiens, UniProt O14746).
T3 construct: expressed in transfected cells; host or cells: TERC-null 293T cells transfected with TERT and T-free TERC vectors
In words: Modified GGAAAG TRAP assay on T-free super-telomerase extracts. The note with it: increasing dTTP levels. The method, then:
as §1

T2 sequence (O14746 whole entry): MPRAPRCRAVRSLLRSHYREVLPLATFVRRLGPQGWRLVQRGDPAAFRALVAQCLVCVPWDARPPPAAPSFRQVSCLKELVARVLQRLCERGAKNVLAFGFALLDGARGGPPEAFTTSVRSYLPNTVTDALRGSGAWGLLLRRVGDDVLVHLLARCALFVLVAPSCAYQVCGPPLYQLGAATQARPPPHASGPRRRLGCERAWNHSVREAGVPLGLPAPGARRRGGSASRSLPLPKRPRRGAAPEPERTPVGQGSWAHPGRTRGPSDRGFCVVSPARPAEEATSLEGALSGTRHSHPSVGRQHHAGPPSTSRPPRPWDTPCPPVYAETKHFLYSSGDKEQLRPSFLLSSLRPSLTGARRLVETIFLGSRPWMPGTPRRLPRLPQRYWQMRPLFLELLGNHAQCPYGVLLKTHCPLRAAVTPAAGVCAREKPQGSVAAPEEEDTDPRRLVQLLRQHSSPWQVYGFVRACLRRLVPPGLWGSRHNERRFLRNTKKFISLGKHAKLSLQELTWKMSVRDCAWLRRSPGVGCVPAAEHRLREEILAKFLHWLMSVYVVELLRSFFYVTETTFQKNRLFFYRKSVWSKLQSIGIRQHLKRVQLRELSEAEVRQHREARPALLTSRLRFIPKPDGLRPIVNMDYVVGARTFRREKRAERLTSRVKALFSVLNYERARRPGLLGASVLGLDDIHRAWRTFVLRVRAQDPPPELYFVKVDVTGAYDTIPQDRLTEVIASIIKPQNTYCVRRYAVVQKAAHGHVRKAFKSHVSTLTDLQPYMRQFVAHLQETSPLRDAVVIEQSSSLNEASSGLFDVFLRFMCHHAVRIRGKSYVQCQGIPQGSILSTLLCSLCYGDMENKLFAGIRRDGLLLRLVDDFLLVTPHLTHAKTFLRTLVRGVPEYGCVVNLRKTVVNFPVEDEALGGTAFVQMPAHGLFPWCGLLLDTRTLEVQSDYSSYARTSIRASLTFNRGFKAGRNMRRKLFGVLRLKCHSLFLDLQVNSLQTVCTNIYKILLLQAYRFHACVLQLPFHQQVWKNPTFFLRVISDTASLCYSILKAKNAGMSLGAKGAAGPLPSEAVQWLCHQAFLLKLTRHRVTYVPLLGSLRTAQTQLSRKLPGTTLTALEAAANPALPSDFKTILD
T2 sequence (O60832 whole entry partner): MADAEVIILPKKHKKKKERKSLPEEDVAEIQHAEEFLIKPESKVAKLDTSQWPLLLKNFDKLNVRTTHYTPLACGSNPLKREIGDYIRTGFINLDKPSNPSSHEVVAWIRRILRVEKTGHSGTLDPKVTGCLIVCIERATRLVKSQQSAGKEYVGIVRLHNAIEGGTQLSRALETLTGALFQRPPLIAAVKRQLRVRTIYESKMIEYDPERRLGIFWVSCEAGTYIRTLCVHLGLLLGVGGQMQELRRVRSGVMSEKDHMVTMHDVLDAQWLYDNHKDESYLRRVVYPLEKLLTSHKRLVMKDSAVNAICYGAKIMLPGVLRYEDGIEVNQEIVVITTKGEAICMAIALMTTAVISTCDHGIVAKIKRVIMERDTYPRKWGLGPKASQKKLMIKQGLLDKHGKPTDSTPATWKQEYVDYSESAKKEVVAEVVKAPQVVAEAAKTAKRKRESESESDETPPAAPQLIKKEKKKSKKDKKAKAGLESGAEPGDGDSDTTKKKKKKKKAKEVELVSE
T2 sequence (Q9NPE3 whole entry partner): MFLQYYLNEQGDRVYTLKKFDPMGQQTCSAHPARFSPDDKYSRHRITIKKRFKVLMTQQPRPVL
T2 sequence (Q9NX24 whole entry partner): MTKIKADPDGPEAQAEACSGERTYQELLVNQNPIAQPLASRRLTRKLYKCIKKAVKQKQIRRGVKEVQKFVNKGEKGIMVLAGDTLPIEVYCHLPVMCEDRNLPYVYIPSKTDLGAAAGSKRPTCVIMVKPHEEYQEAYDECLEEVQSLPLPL
T2 sequence (Q9NY12 whole entry partner): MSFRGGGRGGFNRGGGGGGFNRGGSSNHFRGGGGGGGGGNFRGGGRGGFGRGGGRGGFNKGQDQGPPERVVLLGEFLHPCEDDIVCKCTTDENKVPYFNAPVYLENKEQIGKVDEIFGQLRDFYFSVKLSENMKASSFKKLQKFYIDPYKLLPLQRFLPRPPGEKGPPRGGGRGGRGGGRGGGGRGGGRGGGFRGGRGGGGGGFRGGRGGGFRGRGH
T3 sequence (O14746 whole entry): as the sequence (O14746 whole entry) above
T3 sequence (O60832 whole entry partner): as the sequence (O60832 whole entry partner) above
T3 sequence (Q9NPE3 whole entry partner): as the sequence (Q9NPE3 whole entry partner) above
T3 sequence (Q9NX24 whole entry partner): as the sequence (Q9NX24 whole entry partner) above
T3 sequence (Q9NY12 whole entry partner): as the sequence (Q9NY12 whole entry partner) above
T1 sequence (O14746 whole entry): as the sequence (O14746 whole entry) above
T1 sequence (O60832 whole entry partner): as the sequence (O60832 whole entry partner) above
T1 sequence (Q9NPE3 whole entry partner): as the sequence (Q9NPE3 whole entry partner) above
T1 sequence (Q9NX24 whole entry partner): as the sequence (Q9NX24 whole entry partner) above
T1 sequence (Q9NY12 whole entry partner): as the sequence (Q9NY12 whole entry partner) above

Turning to `Cc1cn([C@H]2C[C@H](O)[C@@H](COP(=O)(O)OP(=O)(O)OP(=O)(O)O)O2)c(=O)[nH]c1=O` [dTTP, dT triphosphate], the telomerase activity result on telomerase was “enhanced telomerase activity”. The “T-free telomerase activity, levels higher than without dTTP” value in test [1] (at a concentration of 25 μM dTTP) was “approximately 50%”. For the same compound, the T-free telomerase activity entry is listed as “enhanced T-free telomerase activity in a dose-dependent manner” in test [1] (incorporation of α-32P-dATP, dTTP added) and “increased T-free telomerase activity with increasing dTTP levels” on T-free telomerase.
